# Source: patent publication US11044911B2, “Phenoxyurea compound and pest control agent” (Nippon Soda Co., Ltd., priority 2018, dated 2021)
# Assays:
# [1] = tested on: drug-resistant strain of Panonychus citri collected in Wakayama Prefecture; assay: Test Example 13: efficacy test against drug-resistant strain of Panonychus citri; format: in vivo; settings: 10 days, corrected insecticidal rate
# Method: (§1) 5 parts by weight of the compound of the present invention, 93.6 parts by weight of dimethylformamide and 1.4 parts by weight of polyoxyethylene alkylaryl ether were mixed and dissolved to prepare an emulsion (I) containing 5% of an active ingredient.
# (§2) Insecticidal rate (%)=(number of dead insects/number of tested insects)×100
# (§3) In addition, an efficacy test against a drug-resistant strain of Panonychus citri collected in Wakayama Prefecture was conducted in the following manner.
# (§4) 8 adult females of a drug resistant strain of Panonychus citri were inoculated on mandarin orange leaves placed in a petri dish. Then, the emulsion (I) was diluted with water so that the concentration of the compound was 37.5 ppm or 9.4 ppm to obtain a chemical. This chemical was sprayed onto the mandarin orange leaves with a rotary spray tower. The mandarin orange leaves were placed in a thermostatic chamber at a temperature of 25° C. and a humidity of 65%. The life and death of the spider mite were investigated when 10 days had passed after the spraying, and the corrected insecticidal rate was calculated.
# eggplants = assay: Test Example 14: phytotoxicity test on eggplants; format: in vivo, eggplant; settings: 300 ppm spray; for Eggplant; 6- to 7-leaf stage After 14 days Leaf Phytotoxicity index: index 0 (no phytotoxicity) to 10 (plant death)
# Description: (§5) A sufficient amount of chemical having a compound concentration of 300 ppm was sprayed onto eggplants at the 6- to 7-leaf stage using a glass nozzle, and they were left to stand in a greenhouse. The presence or absence of phytotoxicity was investigated after being left to stand for 14 days.
# (§6) The symptoms of phytotoxicity were deformation and discoloration of leaves.
# cucumber plants = assay: Test Example 14: phytotoxicity test on cucumber plants; format: in vivo; settings: 300 ppm spray; for Cucumber; 1.5-leaf stage After 14 days Leaf Phytotoxicity index: index 0 (no phytotoxicity) to 10 (plant death)
# Method: as §5, with “A test for phytotoxicity on cucumber plants was conducted as follows. A” for “A”, “cucumber plants” for “eggplants”, “1.5-leaf” for “6- to 7-leaf”
# as §6
# Tetranychus urticae = assay: Test Example 10: efficacy test against Tetranychus urticae (soil irrigation test); format: in vivo; settings: 25 ml of 400 ppm, strawberry seedling, 19 days after inoculation
# Method: as §1
# The emulsion (I) was diluted with tap water to prepare a drug solution having a concentration of 400 ppm. A plastic potted strawberry seedling was subjected to a plant foot irrigation treatment with 25 ml of the drug solution, and placed in a thermostatic chamber at a temperature of 25° C. and a humidity of 60%. Three days after the irrigation treatment, 15 adult females of Tetranychus urticae were inoculated on each seedling. The number of surviving insects 19 days after inoculation was investigated, and the control value was obtained by the following formula. The test was repeated twice. Control value (%)=100−{(Nt)/(Nc)×100}
# The letters in the formula represent the following.
# Nc: Number of surviving insects in the untreated group
# Nt: Number of surviving insects in the treated group
# [2] = tested on: drug resistant strains of spider mites; assay: Test Example 13: summary over all drug resistant strains of spider mites; format: in vivo, Tetranychus urticae, Panonychus citri; settings: 9.4 ppm, all strains tested
# Method: (§7) Efficacy tests against seven drug-resistant strains of Tetranychus urticae collected from various parts of Japan (one strain from Shizuoka Prefecture, Aomori Prefecture and Fukuoka Prefecture, and two strains from Chiba Prefecture and Nagano Prefecture) were conducted in the following manner.
# as §4, with “drug-resistant strains” for “a drug resistant strain”, “spider mites” for “Panonychus citri”, “kidney bean plant” for “mandarin orange”, “the” for “the corrected”
# as §3
# 8 adult females of a drug resistant strain of Panonychus citri were inoculated on mandarin orange leaves placed in a petri dish. […] The life and death of the spider mite were investigated when 10 days had passed after the spraying, and the corrected insecticidal rate was calculated.
# [3] = tested on: drug-resistant strains of Tetranychus urticae; assay: Test Example 13: efficacy test against drug-resistant strains of Tetranychus urticae; format: in vivo; settings: 10 days
# Description: as §1, §2, §7
# as §4, with “drug-resistant strains” for “a drug resistant strain”, “spider mites” for “Panonychus citri”, “kidney bean plant” for “mandarin orange”, “the” for “the corrected”
SMILES,"insecticidal rate, Low-susceptible Panonychus citri from Wakayama Prefecture ([1]; 9.4 ppm)","insecticidal rate, Low-susceptible Panonychus citri from Wakayama Prefecture ([1]; 37.5 ppm)",Eggplant; 6- to 7-leaf stage After 14 days Leaf Phytotoxicity index (eggplants; Repetition A),Eggplant; 6- to 7-leaf stage After 14 days Leaf Phytotoxicity index (eggplants; Repetition B),Cucumber; 1.5-leaf stage After 14 days Leaf Phytotoxicity index (cucumber plants; Repetition A),Cucumber; 1.5-leaf stage After 14 days Leaf Phytotoxicity index (cucumber plants; Repetition B),"insecticidal rate, Low-susceptible Tetranychus urticae 1 from Nagano Prefecture ([3]; 9.4 ppm)","insecticidal rate, Low-susceptible Tetranychus urticae 2 from Chiba Prefecture ([3]; 9.4 ppm)","insecticidal rate, Low-susceptible Tetranychus urticae 2 from Nagano Prefecture ([3]; 9.4 ppm)","insecticidal rate, Low-susceptible Tetranychus urticae from Aomori Prefecture ([3]; 9.4 ppm)","insecticidal rate, Low-susceptible Tetranychus urticae from Fukuoka Prefecture ([3]; 9.4 ppm)","insecticidal rate, Low-susceptible Tetranyclus urticae 1 from Chiba Prefecture ([3]; 9.4 ppm)","insecticidal rate, Low-susceptible Tetranychus urticae 1 from Nagano Prefecture ([3]; 37.5 ppm)","insecticidal rate, Low-susceptible Tetranychus urticae 2 from Chiba Prefecture ([3]; 37.5 ppm)","insecticidal rate, Low-susceptible Tetranychus urticae 2 from Nagano Prefecture ([3]; 37.5 ppm)","insecticidal rate, Low-susceptible Tetranychus urticae from Aomori Prefecture ([3]; 37.5 ppm)","insecticidal rate, Low-susceptible Tetranychus urticae from Fukuoka Prefecture ([3]; 37.5 ppm)","insecticidal rate, Low-susceptible Tetranyclus urticae 1 from Chiba Prefecture ([3]; 37.5 ppm)",further results
"CCN(Oc1cc(Br)cc(C(F)(F)F)c1)C(=O)NC(C)(C)C(=O)NCC(F)(F)F [Compound 1-1, 2-{3-[3-Bromo-5-(trifluoromethyl)phenoxy]-3-ethylureido}-2-methyl-N-(2,2,2-trifluoroethyl)propanamide]",99%,100%,0,0,0,0,100%,97%,99%,93%,96%,100%,100%,100%,100%,100%,99%,100%,"phytotoxicity on eggplants (eggplants; 14 days): no phytotoxicity; phytotoxicity on cucumber plants (cucumber plants; 14 days): no phytotoxicity; control value against Tetranychus urticae (Tetranychus urticae): ≥ 90%; efficacy against all drug resistant strains of spider mites [2]: ≥ 90; insecticidal rate, Low-susceptible Tetranychus urticae from Shizuoka Prefecture ([3]; 9.4 ppm): 96%; insecticidal rate, Low-susceptible Tetranychus urticae from Shizuoka Prefecture ([3]; 37.5 ppm): 100%"
CCN(Oc1cc(Cl)cc(Br)c1)C(=O)NC(C)(C)C(=O)NCC(F)(F)F [Compound (D)],,,3,3,5,7,73%,72%,45%,,,32%,99%,87%,96%,,,77%,
CCN(Oc1cc(Br)nc(Br)c1)C(=O)NC(C)(C)C(=O)NCC(F)(F)F [Compound (G)],60%,95%,2,2,2,2,78%,58%,70%,66%,,53%,96%,91%,88%,97%,,98%,
CCN(Oc1ccnc(C(F)(F)F)c1)C(=O)NC(C)(C)C(=O)NCC(F)(F)F [Compound (H)],78%,96%,2,2,,,,,,,45%,,,,,,96%,,
